In general, AUC(0-inf) refers to the area under the concentration-time curve extrapolated to infinity. In general, IC50 refers to the concentration that inhibits the measured activity by half. One may read the AUC(0-t) as the area under the concentration-time curve up to a stated or last time point. A low value points to less exposure.

Active and inactive are the calls of the source. The calls are words filed in the database; no cut-off is given here.

The test system of data set [1] is SW-620. In words: Induction of mitochondrial membrane potential depolarization in human SW620 cells assessed as reduction in red fluorescence incubated for 48 hrs by JC1-staining based CLSM analysis. It is filed as functional, cell-based. The note with it: dose 0.5-2 µM.
Data set [2] concerns SW-620. In words: Induction of cell cycle arrest at G1 phase in human SW620 cells at 2 uM incubated for 24 hrs by PI staining based flow cytometry (reference value: 32.4 %). It is filed as functional.
The test system of data set [3] is SW-620. Briefly: Induction of mitochondrial membrane potential depolarization in human SW620 cells assessed as increase in green fluorescence incubated for 48 hrs by JC1-staining based CLSM analysis. It counts as functional, cell-based. The note with it: dose 0.5-2 µM.
Data set [4] in a line: AUC (0 to infinity) in mouse at 2 mg/kg, iv measured for 24 hrs by LC-MS/MS analysis. It counts as ADME, organism-based. The note with it: in vivo.
The target of the next data set is T1, Peroxiredoxin-2 (Homo sapiens, UniProt P32119).
T1 sequence (P32119 whole entry): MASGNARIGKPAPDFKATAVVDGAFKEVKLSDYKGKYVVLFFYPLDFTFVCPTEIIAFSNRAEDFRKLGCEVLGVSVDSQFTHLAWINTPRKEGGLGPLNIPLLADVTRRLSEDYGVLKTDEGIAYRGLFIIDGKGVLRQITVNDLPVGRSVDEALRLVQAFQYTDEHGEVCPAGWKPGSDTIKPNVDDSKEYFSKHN
Briefly: Inhibition of recombinant PRDX2 (unknown origin) using H2O2 as substrate preincubated for 0.5 hrs followed by substrate addition by TRX-TrxR-NADPH coupling assay.

The subject of data set [5] is SW-620. In words: Induction of apoptosis in human SW620 cells assessed as decrease in Bcl-2 level incubated for 48 hrs by Western blot analysis. It counts as functional, cell-based. The note with it: dose 0.25-2 µM. On the technique in general: In western blotting, separated proteins are transferred to a membrane and probed.
Data set [6] deals with SW-620. In words: Induction of cell cycle arrest at G2 phase in human SW620 cells at 1 uM incubated for 24 hrs by PI staining based flow cytometry (reference value: 6.77 %). It counts as functional. A general note: A flow cytometer gives signals particle by particle.
Data set [7] can be described thus: Acute toxicity in C57BL/[…] 6J mouse assessed as pathological change in heart at 20 mg/kg, ip measured for 2 weeks by H and E staining based analysis. It counts as organism-based. The settings on record: in vivo, 336 h.
The test system of data set [8] is SW-620. In words: Induction of mitochondrial membrane potential depolarization in human SW620 cells assessed as increase in JC-1-stained green cells at 0.5 to 2 uM incubated for 48 hrs by flow cytometry. It counts as functional, cell-based. The note with it: dose 0.5-2 µM.
For the next data set, the target named is T2, Peroxiredoxin-6 (Homo sapiens, UniProt P30041).
T2 sequence (P30041 whole entry): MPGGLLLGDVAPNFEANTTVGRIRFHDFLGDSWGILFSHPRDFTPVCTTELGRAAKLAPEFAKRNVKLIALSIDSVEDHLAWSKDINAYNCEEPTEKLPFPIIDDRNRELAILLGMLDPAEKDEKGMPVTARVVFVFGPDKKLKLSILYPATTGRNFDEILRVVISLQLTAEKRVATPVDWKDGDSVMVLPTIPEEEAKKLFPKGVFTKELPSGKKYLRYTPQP
In words: Inhibition of recombinant PRDX6 (unknown origin) using H2O2 as substrate preincubated for 0.5 hrs followed by substrate addition by TRX-TrxR-NADPH coupling assay.

Data set [9] has as its system SW-620. Briefly: Induction of cell cycle arrest at G2 phase in human SW620 cells at 0.5 uM incubated for 24 hrs by PI staining based flow cytometry (reference value: 6.77 %). It counts as functional.
Data set [10] concerns SW-620. Briefly: Induction of cell cycle arrest at S phase in human SW620 cells at 0.5 uM incubated for 24 hrs by PI staining based flow cytometry (reference value: 59.9 %). It is filed as functional.
A further data set addresses T3, Peroxiredoxin-4 (Homo sapiens, UniProt Q13162).
T3 sequence (Q13162 whole entry): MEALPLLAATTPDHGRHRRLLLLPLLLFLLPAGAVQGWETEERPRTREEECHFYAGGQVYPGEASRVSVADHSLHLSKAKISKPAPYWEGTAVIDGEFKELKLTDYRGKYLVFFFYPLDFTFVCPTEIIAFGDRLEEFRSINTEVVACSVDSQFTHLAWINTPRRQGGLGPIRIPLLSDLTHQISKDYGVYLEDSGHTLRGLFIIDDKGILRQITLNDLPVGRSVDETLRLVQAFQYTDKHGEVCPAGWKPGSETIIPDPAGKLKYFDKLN
In words: Inhibition of recombinant PRDX4 (unknown origin) using H2O2 as substrate preincubated for 0.5 hrs followed by substrate addition by TRX-TrxR-NADPH coupling assay.

Data set [11] deals with T4, Thioredoxin-dependent peroxide reductase, mitochondrial (Homo sapiens, UniProt P30048).
T4 sequence (P30048 whole entry): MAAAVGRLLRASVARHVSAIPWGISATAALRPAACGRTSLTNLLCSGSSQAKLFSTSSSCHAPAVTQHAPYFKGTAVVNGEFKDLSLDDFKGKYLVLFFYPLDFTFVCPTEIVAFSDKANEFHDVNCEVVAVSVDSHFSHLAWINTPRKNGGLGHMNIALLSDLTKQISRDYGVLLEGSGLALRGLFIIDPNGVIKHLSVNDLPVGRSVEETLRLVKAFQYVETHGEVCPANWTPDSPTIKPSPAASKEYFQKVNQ
In words: Inhibition of recombinant PRDX3 (unknown origin) using H2O2 as substrate preincubated for 0.5 hrs followed by substrate addition by TRX-TrxR-NADPH coupling assay.

The test system of data set [12] is SW-620. Briefly: Induction of mitochondrial membrane potential depolarization in human SW620 cells assessed as JC-1-stained red cells upto 2 uM incubated for 48 hrs by flow cytometry (reference value: 89.8 %). It is filed as functional. The note with it: up to 2 µM.
The target of the next data set is T5, Peroxiredoxin-1 (Homo sapiens, UniProt Q06830).
T5 sequence (Q06830 whole entry): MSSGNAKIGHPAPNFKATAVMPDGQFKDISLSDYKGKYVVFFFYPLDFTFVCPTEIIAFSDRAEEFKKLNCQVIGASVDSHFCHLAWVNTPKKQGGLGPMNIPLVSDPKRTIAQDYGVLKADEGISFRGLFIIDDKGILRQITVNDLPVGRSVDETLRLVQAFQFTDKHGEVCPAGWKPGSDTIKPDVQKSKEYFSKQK
In words: Inhibition of recombinant PRDX1 (unknown origin) using H2O2 as substrate preincubated for 0.5 hrs followed by substrate addition by TRX-TrxR-NADPH coupling assay.

Data set [13] can be described thus: AUC (0 to t) in mouse at 2 mg/kg, iv measured for 24 hrs by LC-MS/MS analysis. It is filed as ADME, organism-based. The settings on record: in vivo.
The test system of data set [14] is SW-620. In words: Antitumor activity against human SW620 cells xenografted in BALB/c nude mouse assessed as decrease in Ki-67 level at 2 mg/kg, ip qd for 16 days by IHC analysis. The note with it: time 16.0 day. It is filed as functional, organism-based. In general terms: Xenograft models place foreign cells or tissue in a host animal.
Data set [15] is described as follows: Toxicity in BALB/c nude mouse xenografted with human SW620 cells assessed as body weight loss at 2 mg/kg, ip qd for 16 days. It is filed as organism-based, SW-620. The settings on record: in vivo, 384 h, time 16 day.
In data set [16] the target is T6, Peroxiredoxin-5, mitochondrial (Homo sapiens, UniProt P30044).
T6 sequence (P30044 whole entry): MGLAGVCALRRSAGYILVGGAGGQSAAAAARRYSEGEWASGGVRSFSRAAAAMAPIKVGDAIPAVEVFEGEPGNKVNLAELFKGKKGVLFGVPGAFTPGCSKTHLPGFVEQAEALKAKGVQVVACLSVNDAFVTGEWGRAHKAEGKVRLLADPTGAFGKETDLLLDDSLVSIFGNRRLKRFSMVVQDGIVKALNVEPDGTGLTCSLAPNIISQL
Briefly: Inhibition of recombinant PRDX5 (unknown origin) using H2O2 as substrate preincubated for 0.5 hrs followed by substrate addition by TRX-TrxR-NADPH coupling assay.

As for `COC(=O)C1(NC(=O)N[C@]2(C)CC[C@]3(C)CC[C@]4(C)C5=CC=C6C(=CC(=O)C(O)=C6C)[C@]5(C)CC[C@@]4(C)[C@@H]3C2)CCC1`, the Activity result was “Dose-Dependent Effect” in the data set on SW-620 [1]; 29.2% with SW-620 [2]; “Dose-Dependent Effect” in the data set with SW-620 [3]; “Dose-Dependent Effect” with SW-620 [5]; 14.6% in the data set with SW-620 [6]; “Non-Toxic” in [7]. The Activity in the data set on SW-620 [9] was 7.05%; with SW-620 [10], 57.3%; in the data set with SW-620 [12], 39.2%; in data set [15], “Non-Toxic”. In data set [4], the AUC(0-inf) is 403 ng·h/mL. The IC50 at Peroxiredoxin-2 was more than 50 µM; at Peroxiredoxin-6, more than 50 µM; on Peroxiredoxin-4, more than 50 µM; in data set [11], more than 50 µM; on Peroxiredoxin-1 it was 350 nM; in data set [16], more than 50 µM. For the same compound, the result in the data set on SW-620 [8] and with SW-620 [14] was Active. Further, the AUC(0-t) at 24 h in data set [13] came out at 364 ng·h/mL.

The values are drawn from ChEMBL document CHEMBL5543168, “Discovery of Urea Derivatives of Celastrol as Selective Peroxiredoxin 1 Inhibitors against Colorectal Cancer Cells” (J Med Chem, 2024).
